{"source": "paper PMC5548701", "about": "“Selective targeting of melanoma using N-(2-diethylaminoethyl) 4-[^18F]fluoroethoxy benzamide (4-[^18F]FEBZA): a novel PET imaging probe” (EJNMMI Research, 2017)", "key": {"B16F1 melanoma cells": {"system": "B16F1 melanoma cells", "assay": "in vitro cell binding, influence of incubation time and temperature", "format": "cell-based, murine", "conditions": "2.5 × 10^5 cells/well, percent of total radioactivity added", "description": "The in vitro cell binding was assessed by growing B16F1 cells in culture flasks to 80–90% confluence, trypsinizing, washing in PBS (pH 7.4), aliquoting into 12-well plates and allowing adherence to the wells overnight. Initially, we studied the influence of the incubation time and temperature on the binding to B16F1 melanoma cells. For this study, 12-well plates containing ~2.5 × 10^5 cells/well were incubated at 0, 22, and 37 °C with 4-[^18F]FEBZA in quadruplicate sets for 15, 30, 60, 120, and 180 min. After the incubation, the media were removed, and each well was washed with fresh ice-cold media (2 × 2 mL). The adherent cells were removed by lysing cells in 500 μL of PBS containing 10% Triton X-100 (Sigma-Aldrich, St. Louis, MO). The combined washes and lysate were analyzed for radioactivity content using a γ-counter."}, "B16F1 cells [1]": {"system": "B16F1 cells", "assay": "homologous competitive binding assay on fixed B16F1 cells", "parameters": "species or system murine", "conditions": "homologous competition with unlabeled 4-FEBZA, 1 h", "description": "After adding 0.1 nmol of 4-[^18F]FEBZA/well as the radioligand, unlabeled 4-FEBZA (2) was added to the quadruplicate sets of wells in concentrations ranging from 10^−11 to 10^−4 M and the plates were incubated for an hour at 37 °C under 5% CO2. At the end of the incubation, the media were removed, and the cells were washed with 500 μL of ice-cold media. The cells were lysed using 1 mL of phosphate-buffered saline containing 10% Triton X-100, and the lysates were collected in culture tubes to measure the radioactivity contents using a γ-counter. We performed a non-linear regression analysis of the decay-corrected CPM values to calculate the inhibition constant value (IC50), the concentration of competitor required to inhibit 50% of radiotracer binding, utilizing the GraphPad Prism software program (GraphPad Software, Inc., CA)."}, "B16F1 cells [2]": {"system": "B16F1 cells", "assay": "internalization assay (acid wash)", "format": "cell-based, murine", "conditions": "37 °C", "description": "Next, we evaluated the binding characteristics of 4-[^18F]FEBZA to B16F1 cells through internalization experiments. The cells were treated with a low pH buffer to sequester membrane-bound radioactivity (acid wash-releasable) from the internalized (acid wash-resistant) fraction. For this assay, 4-[^18F]FEBZA was added to 12-well plates with each well containing 4 × 10^5 B16F1cells/well (in quadruplicate), and the plates were incubated at 37 °C for 15, 30, 60, 120, and 180 min. After the incubation, the media were removed, each well was washed with ice-cold PBS (2 × 1 mL), and the washes were collected in the tubes. Subsequently, each well was gently treated with 1 mL of an ice-cold mildly acidic medium (sodium acetate buffer, pH 4.5) to remove surface-bound radioactivity, and the rinses were collected in tubes (acidic wash). The adherent cells were then lysed using 500 μL of 10% Triton X-100 in PBS, and the lysate was transferred into tubes. The total radioactivity in each of the lysate, acidic wash, and the PBS wash was measured using a γ-counter."}, "HT-29 tumor": {"system": "HT-29 tumor", "assay": "microPET imaging in mouse bearing HT-29 tumor", "format": "in vivo, mice", "description": "In vivo imaging of 4-[^18F]FEBZA in mice bearing B16F1 (n = 2) and HT-29 (n = 1) tumor was performed using a P4 microPET™ scanner (Concorde Microsystems, Inc., Knoxville, TN). After administering ~100 μCi of 4-[^18F]FEBZA via tail-vein injection, whole body PET scans were acquired in list mode. The images were reconstructed using filtered back projection with attenuation correction. Regions Of Interest (ROIs) were drawn on select organs using the summed image from the entire scan acquisition session, and the data were analyzed using ASIPro software (Siemens Preclinical Solutions, Knoxville, TN). The time activity curves (TACs) were generated from the list mode data reconstructed into multiple 5-min frames."}}, "note": "pIC50: −log10 of the molar value. Entries after “also recorded” stand apart in the source; their conditions may differ. Like-named read-outs stand apart in the source and are kept apart here.", "data": [{"smiles": "CCN(CC)CCNC(=O)c1ccc(OCC[18F])cc1", "note": "[4-[^18F]FEBZA, N-(2-diethylaminoethyl) 4-[^18F]fluoroethoxybenzamide]", "values": [{"measurement": "total binding to B16F1 cells", "setting": "B16F1 melanoma cells; 22 °C", "result": "44.45 ± 0.61", "unit": "%"}, {"measurement": "total binding to B16F1 cells", "setting": "B16F1 melanoma cells; 37 °C, 1 h incubation", "result": "60.03 ± 0.48", "unit": "%"}, {"measurement": "pIC50", "setting": "B16F1 cells [1]; read-out: IC50, first of two distinct binding sites", "result": 8.74}, {"measurement": "pIC50", "setting": "B16F1 cells [1]; read-out: IC50, second of two distinct binding sites", "result": 5.89}, {"measurement": "internalized fraction of cell-associated radioactivity", "setting": "B16F1 cells [2]", "result": "Majority of the cell-associated radioactivity is internalized"}, {"measurement": "time at which internalized fraction reached plateau", "setting": "B16F1 cells [2]", "result": "about 120 min"}, {"measurement": "cell surface bound fraction", "setting": "B16F1 cells [2]; all time points (15-180 min)", "result": "< 1", "unit": "%"}, {"measurement": "standardized uptake value (SUV) of tumor from microPET images", "setting": "HT-29 tumor", "result": "0.25 ± 0.04"}, {"measurement": "visibility of tumor on microPET scans", "setting": "HT-29 tumor", "result": "not visible; also recorded: not discernable"}]}]}
